Experiments:
[1] = tested on: adult subjects with late-onset Pompe disease (LOPD); experiment: ATB200-03 (PROPEL): urinary hexose tetrasaccharide (Hex4) biomarker; type: in vivo, human; settings: after 52 weeks, combined ERT switch and ERT naïve population (p<0.001)
Description: (§1) The ATB200-03 trial was a phase 3 double-blind, randomized, multicenter, international study of ATB200/AT2221 in adult subjects with late-onset Pompe disease (LOPD) who had received enzyme replacement therapy with alglucosidase alfa (i.e., ERT-experienced) or who had never received ERT (i.e., ERT naïve), compared with alglucosidase alfa/placebo.
(§2) Pharmacodynamic assessments included measurement of biomarkers of muscle injury (creatine kinase (CK) and disease substrate (urinary hexose tetrasaccharide (Hex4)). Sparse blood samples were collected for determination of total GAA protein levels and AT2221 concentrations in plasma for a population PK analysis in ERT-experienced subjects. Serial blood sampling for characterization of the PK profile of total GAA protein and AT2221 were done in ERT-naïve subjects.
(§3) Pharmacodynamic endpoints were as follows: • change from baseline to Week 52 in serum CK level • change from baseline to Week 52 in urinary Hex4 level

Gaa KO mice [2] = experiment: muscle biomarker analysis (LAMP1, LC3, dysferlin) in Gaa KO mice; type: in vivo; settings: FIG. 15B
Method: The therapeutic effects of ATB200 and AT2221 were evaluated and compared against those of Alglucosidase alfa in Gaa KO mice. For the study, male Gaa KO (3- to 4-month old) and age-matched wild-type (WT) mice were used. Alglucosidase alfa was administered via bolus tail vein intravenous (IV) injection. In the co-administration regimen, AT2221 was administered via oral gavage (PO) 30 minutes prior to the IV injection of ATB200. Treatment was given biweekly. Treated mice were sacrificed after 14 days from the last administration and various tissues were collected for further analysis. Table 7 summarizes the study design:
Tissue samples were also analyzed for biomarker changes following the methods discussed in: Khanna R, et al. (2012), “The pharmacological chaperone AT2220 increases recombinant human acid α-glucosidase uptake and glycogen reduction in a mouse model of Pompe disease,” Plos One 7(7): e40776; and Khanna, R et al. (2014), “The Pharmacological Chaperone AT2220 Increases the Specific Activity and Lysosomal Delivery of Mutant Acid α-Glucosidase, and Promotes Glycogen Reduction in a Transgenic Mouse Model of Pompe Disease,” PLoS ONE 9(7): e102092.

[3] = tested on: adult subjects with late-onset Pompe disease (LOPD); experiment: ATB200-03 (PROPEL): Gait, Stair, Gower, Chair (GSGC) test; type: in vivo, human; settings: overall population, 52 weeks (p<0.05)
Description: as §1
(§4) Efficacy assessments (i.e., functional assessments) included evaluation of ambulatory function (6MWT), motor function tests (Gait, Stair, Gower, and Chair maneuver (GSGC) test and Timed Up and Go (TUG) test), muscle strength (manual muscle testing and quantitative muscle testing), and pulmonary function tests (FVC, SVC, MIP, MEP, and SNIP). Patient reported outcomes (Rasch-built Pompe-specific Activity (R Pact) Scale, EuroQol 5 Dimensions 5 Levels Instrument (EQ-5D-5L), Patient-Reported Outcomes Measurement Information System (PROMIS®) instruments for physical function, fatigue, dyspnea, and upper extremity, and Subject's Global Impression of Change) were recorded. The Physician's Global Impression of Change were also performed.
Key secondary efficacy endpoints in a pre-specified hierarchical order of importance were as follows. […]

[4] = tested on: adult subjects with late-onset Pompe disease (LOPD); experiment: ATB200-03 (PROPEL): safety assessments; type: in vivo, human; settings: 52-week treatment
Description: Safety assessments included monitoring of adverse events (AEs), including infusion associated reactions (IARs), clinical laboratory tests (chemistry, hematology, and urinalysis), vital signs, physical examinations including weight, electrocardiograms (ECGs), and immunogenicity. Concomitant medications and nondrug therapies were also be recorded.
The safety profile of ATB200/AT2221 was characterized using incidence of treatment emergent adverse events (TEAEs), serious adverse events (SAEs), and AEs leading to discontinuation of study drug, frequency and severity of immediate and late IARs, and any abnormalities noted in other safety assessments. The impact of immunogenicity to ATB200 and alglucosidase alfa on safety and efficacy was also assessed.
Safety Analyses. Safety data was summarized using counts and percentages for categorical data and descriptive statistics (mean, standard deviation, median, minimum, maximum) for continuous data.

Gaa KO mice [5] = experiment: single fiber analysis (LAMP1/LC3 co-immunofluorescence, white gastrocnemius); type: in vivo; settings: Gaa KO mice
Description: FIG. 17 depicts co-immunofluorescent staining of LAMP1 (green) (see for example, “B”) and LC3 (red) (see, for example, “A”) in single fibers isolated from the white gastrocnemius of Gaa KO mice treated with a vehicle, alglucosidase alfa, or ATB200. “C” depicts clearance of autophagic debris and absence of enlarged lysosome. A minimum of 30 fibers were examined from each animal.
As a result, a significant portion of muscle fibers analyzed (36-60%) from ATB200-treated mice appeared normal or near-normal.

[6] = tested on: adult subjects with late-onset Pompe disease (LOPD); experiment: ATB200-03 (PROPEL) phase 3 trial: sitting forced vital capacity; type: in vivo, human
Description: as §1, §4
Key secondary efficacy endpoints in a pre-specified hierarchical order of importance were as follows. These secondary endpoints were analyzed using analysis of covariance (ANCOVA) model with last observation carried forward (ITT LOCF). • change from baseline to Week 52 in sitting FVC (% predicted) • change from baseline to Week 52 in the manual muscle test score for the lower extremities • change from baseline to Week 52 in the total score for the PROMIS—physical function • change from baseline to Week 52 in the total score for the PROMIS—fatigue • change from baseline to Week 52 in GSGC total score
(§5) PROPEL was a 52-week, double-blind randomized global study designed to assess the efficacy, safety and tolerability of AT-GAA compared to the current standard of care, alglucosidase alfa, an enzyme replacement therapy (ERT). The study enrolled 123 adult Pompe patients who still had the ability to walk and to breathe without mechanical ventilation and was conducted at 62 clinical sites in 24 countries on 5 continents. It was the largest controlled clinical study ever conducted in a lysosomal disorder.

[7] = tested on: subjects with late-onset Pompe disease (LOPD); settings: cited from earlier work
[8] = tested on: adult subjects with late-onset Pompe disease (LOPD); experiment: ATB200-03 (PROPEL) phase 3 trial: 6-minute walk test; type: in vivo, human
Description: as §1
Eligible subjects were randomly assigned in a 2:1 ratio to receive ATB200/AT2221 or alglucosidase alfa/placebo and stratified by ERT status (ERT-experienced, ERT-naïve) and baseline 6-minute walk distance (6MWD) (75 to <150 meters, 150 to <400 meters, ≥400 meters).
as §4
The primary efficacy endpoint was the change from baseline to Week 52 in 6MWD. The primary endpoint was tested for superiority of ATB200/AT2221 vs Alglucosidase alfa/placebo, using mixed-effect model for repeated measures (MMRM) and pre-specified nonparametric test in case of violation of normality.
Efficacy Analyses. The primary efficacy endpoint (i.e., change from baseline to Week 52 in 6MWD) was analyzed using a parametric analysis of covariance (ANCOVA) model to compare between the new treatment and the control. This model would typically adjust for baseline 6MWD (as a continuous covariate), and the 2 factors used to stratify randomization: ERT status (ERT naïve vs. ERT-experienced) and baseline 6MWD (75 to <150 meters, 150 to <400 meters, ≥400 meters). However, the baseline 6MWD could not be used in the model twice (both as a continuous and a categorical variable) due to the expected high point biserial correlation between them. Thus, the 6MWD continuous variable remained in the model but the categorical 6MWD was removed. The ANCOVA model then had terms for treatment, baseline 6MWD (continuous), and ERT status (categorical).
as §5

[9] = tested on: adult subjects with late-onset Pompe disease (LOPD); experiment: ATB200-03 (PROPEL): creatine kinase (CK) biomarker of muscle injury; type: in vivo, human; settings: after 52 weeks, overall population (p<0.001)
Description: as §1, §2, §3

[10] = ERT switch (ERT-experienced) population (n=95)
[11] = ERT treatment naïve population (n=27), listed as Alglucosidase alfa
[12] = overall ERT switch and ERT naïve population (n=122)

Substance: [199-arginine,223-histidine]prepro-α-glucosidase (human) [alglucosidase alfa]
- mean change in urine Hex-4 [1]: +11.0%
- LC3 II level by western blot (autophagy) (Gaa KO mice [2]): modest
- GSGC scores [3]: worsening
- patients who discontinued treatment due to an adverse event [4]: 2.6%
- Injection associated reactions (IARs) reported ([4]; share of participants): 26%
- Fibers with Autophagy Buildup (Gaa KO mice [5]): >90%
- Fibers with Normal or Near-normal Appearance (Gaa KO mice [5]): <10%
- FVC CFBL at Week 52 [6, 10]: −4.0 (0.9) % predicted
- FVC CFBL at Week 52 [6, 11]: −3.6 (1.8) % predicted
- FVC CFBL at Week 52 ([6]; ERT treatment naïve population (n=27), listed as alglucosidase alpha): −3.6 % predicted
- absolute decline in percent-predicted FVC ([6]; after 52 weeks, combined population): 4.0%
- absolute decline in percent-predicted FVC ([6]; over the course of the year, ERT switch patients): 4.0%
- FVC CFBL at Week 52 [6, 12]: −4.0 (0.8) % predicted
- subjects who did not show an initial improvement during treatment ([7]; 368 LOPD subjects from published studies): > 30%
- duration of improvements in initial responders ([7]; longer-term studies): approximately 2 years
- 6MWD CFBL at Week 52 [8, 10]: 0.0 m
- 6MWD CFBL at Week 52 ([8]; ERT treatment naïve population (n=27)): 38 m
- 6MWD CFBL at Week 52 [8, 11]: +38.3 (11.1) m
- 6MWD CFBL at Week 52 [8, 12]: 7 m
- 6MWD CFBL at Week 52 ([8]; overall ERT switch and ERT naïve population (n=122), listed as Alglucosidase alfa): +7.2 m
- mean change in CK [9]: +15.6%
